Assay results: a melting point compilation (Tetko et al.; mined from patent text by program, amines drawn as free bases though some values may be those of a salt)

| melting point [°C] | Structure (SMILES) |
| --- | --- |
| 165 to 167 | NCCc1cc2c(-c3ccccc3)c(CC(=O)Nc3ccc(Cl)cc3C(F)(F)F)c(=O)oc2cc1Cl |
| 48 to 50 | CCn1c(Cl)nc2ccccc21 |
| 45 to 46 | O=C(O)CCCCCCCCC=Cc1ccco1 |
| 221 to 222 | CSc1nc(N)nc(-c2ccccc2)c1-c1ccc(=O)n(C(C)C)n1 |
| 174 to 175 | CCCc1nc2c(N)nc3cccnc3c2n1CCCCS(=O)(=O)NC |
| 139 to 141 | CC1C=CC=CN2C3=C(C(=O)CCC3)N(C(=O)Nc3ccccc3F)C12 (stereo not given) |
| 155 to 157 | CC(=O)C1=C(C)CC2C3CCC4CC5OC5CC4(C)C3C(=O)CC12C (stereo not given) |
| 134 to 136 | Cc1ccn(-c2ccc(C(=O)N3Cc4cccn4Cc4ccccc43)c(O)c2)n1 |
| 144 to 146 | O=C(O)CCCN1C(=O)c2cccc([N+](=O)[O-])c2C1=O |
| 97 to 100 | C=CCNc1cnc(-c2ccccc2)c(-c2ccccc2)n1 |
| 151 | Cc1nc(N)sc1S(=O)(=O)NCCO |
| 276 to 277 | CC1(C)CCc2c(N3CCCC3)nc3sc4c(NCc5cncc6ccccc56)ncnc4c3c2C1 |
| 132 to 133 | Cn1nc(Cl)n(-c2ccccc2CBr)c1=O |
| 209 to 211 | O=C(Nc1cc(Cl)c(N2CCOCC2)c(Cl)c1)c1ccc(F)c(OCc2cccnc2)c1 |
| 136 to 140 | C=CC(=O)Oc1ccc(NS(C)(=O)=O)cc1 |
| 124 to 127 | CN(Cc1ccccc1)S(=O)(=O)CC(N)=O |
| 78.3 to 79.9 | O=C(NC(Cc1ccccc1)C(=O)O)OCc1ccc(COCc2ccccc2)cc1 (stereo not given) |
| 45 to 47 | COc1cc2c(cc1O)C(OC)CN(Cc1ccccc1OC)C2 (stereo not given) |
| 272 to 282 | CC(=O)Nc1ccc(/C=C/C(=O)NCC(=O)Nc2ccc(Cl)c(COc3cccc4ccc(C)nc34)c2Cl)cn1 |
| 223 to 226 | CONC(=O)c1cccc(-c2nc3ccccc3c(=O)o2)c1 |
| 154 to 157 | COC(=O)c1ccsc1N/C=C(\C#N)C(=O)OC(C)(C)C |
| 235 to 237 | Cc1ncccc1-c1nc(C(F)(F)F)cn1-c1ccc(S(N)(=O)=O)cc1 |
| 105 to 107 | CC(C)(C)c1cc(C#N)c(O)c(Br)c1Cl |
| 64 to 67 | CC(C)[C@H](NC(=O)OCc1ccccc1)C(=O)OC[C@H]1O[C@@H](n2cc(F)c(=O)[nH]c2=O)[C@H](O)[C@@H]1O |
| 271 to 275 | COc1cc2c(cc1/C=C/CCO)[nH]c1cc(-c3ccccc3Cl)c3c(c12)C(=O)NC3=O |

| melting point [°C] | Structure (SMILES) |
| --- | --- |
| 108 to 110 | O=C(Cc1ccc(OCc2ccc(F)cc2)cc1)NC1(c2nn[nH]n2)Cc2ccc(-c3ccc(Cl)cc3)cc2C1 (stereo not given) |
| 85 to 86 | COc1cc(OC)cc(-c2nc(CCl)co2)c1 |
| 88 to 90 | CCOc1ccc2c(c1)C(O)Cc1c(Cl)cccc1S2 (stereo not given) |
| 228 to 230 | CNc1nc(-c2ccc(SC)cc2)nc(SC)c1C(=O)Nc1ccc(C)cc1 |
| 230 to 231 | COc1ccccc1C1(Cl)C(=O)Nc2cc(C(F)(F)F)c(Cl)cc21 (stereo not given) |
| 115 to 117 | COc1ccc(S(=O)(=O)CC(C)(C)CS(=O)(=O)c2ccc(OC)cc2)cc1 |
| 78 to 80 | C[C@@H](NC(=O)OC(C)(C)C)C(=O)NCCCN1CCN(CCCNc2cccc3c2C(=O)c2ccccc2C3=O)CC1 |
| 140 to 142 | Cn1c(C(F)(F)F)cc(=O)n(-c2cc(OC(=O)OCC(Cl)(Cl)Cl)c(Cl)cc2F)c1=O |
| 197 to 198 | Cc1c(NC(=O)c2ccc(C(C)(C)C)cc2)cccc1-c1cn(C)c(=O)c(Nc2ccc(C(C(=O)O)N(C)C(C)C)cc2)n1 (stereo not given) |
| 175 to 176 | Oc1ccc(N2CCN(Cc3nc4ccccc4s3)CC2)cc1 |
| 272 to 274 | CS(=O)(=O)N1CCN(S(=O)(=O)c2ccc3c(c2)S(=O)(=O)NC(C2CCCCC2)N3)CC1 (stereo not given) |
| 129 to 130 | COc1ccc(CCC(=O)c2c(OC)cc(OC)c(CCC(C)C)c2OCC(=O)O)cc1O |
| 76.4 to 77.7 | OCCCON=Cc1cn(Cc2ccccc2)c2ccccc12 |
| 165 to 167 | Cc1ccc(-c2coc(C=CC(=O)NC3CCC(CN(C)C4CCOCC4)CC3)c2)cc1 (stereo not given) |
| 79 to 81 | CCOc1ccc(CCCc2ccncc2)cc1 |
| 160 to 162 | COc1ccc(C2SCC(C(=O)O)N2C(=O)OC(C)(C)C)cc1 (stereo not given) |
| 118 to 119 | CCOC(=O)c1c(CN(CC)CC)nc2cc(OC)c(OC)cc2c1-c1ccc(OC)cc1 |
| 88 to 90 | CC(C)(C)OC(=O)N1[C@@H](Cc2cccc([Si](C)(C)C)c2)C(=O)O[C@H](c2ccccc2)[C@@H]1c1ccccc1 |
| 86 to 87 | CCCCn1c(=O)c2c(ncn2CCC(C)=O)n(CCCC)c1=O |
| 152 to 153 | COC(=O)Cc1nc(-c2ccc(OC)c(OC)c2)c2cc(OC)c(OC)cc2n1 |
| 129 to 131 | COC(Cc1ccc(OCCc2nc(-c3ccccc3)oc2C)c2ccsc12)C(=O)O (stereo not given) |
| > 300 | Cn1c(=O)c2[nH]c(C=Cc3cccc([N+](=O)[O-])c3)nc2n(C)c1=O |
| 130 | CCCCc1nc2ccccc2n1Cc1ccc(C#N)cc1 |
| 225 to 227 | COC(=O)C1=C(C)NC(C)=NC1c1ccccc1Cl (stereo not given) |
| 200 | COC(=O)c1cc2cc(OC)ccc2n1C |

| melting point [°C] | Structure (SMILES) |
| --- | --- |
| 178 to 179 | COC(=NO)c1cccc2[nH]cc(C=O)c12 |
| 116 to 118 | Fc1cccc2c(OCCc3ccc(Oc4ccc(C(F)(F)F)cn4)cc3)ncnc12 |
| 291 to 292 | Cc1sc2[nH]c(=O)n(Cc3ccc(Cl)cc3)c(=O)c2c1C |
| 129 to 131 | NC(=O)c1cccc(OCc2cccc(Br)c2)c1 |
| 190 | COC(=O)Cn1c(C(=O)O)cc2ccccc21 |
| 203 to 205 | Oc1ccc(-c2cc3cc(Br)cc(Br)c3o2)cc1 |
| 83 to 85 | CCOC(=O)c1cn(CC)c2cc(OS(=O)(=O)C(F)(F)F)c(F)cc2c1=O |
| 170 to 176 | NC(=O)NC1CCC(O)c2ccccc21 (stereo not given) |
| 39 to 40.6 | CCCCCCCCCCCCCCCCC(O)CN(C)CCO (stereo not given) |
| 175 to 177 | COC(=O)c1ccc2cc(CCc3cc4c(C(=O)OC)cccc4o3)oc2c1 |
| 132 | CC(COS(C)(=O)=O)N1c2ccc(Cl)cc2Sc2ccc(C#N)cc21 (racemic) |
| 148 to 149 | O=C(O)C(Cc1ccccc1)Oc1ccc(-c2ccc(-c3c(Br)oc4ccccc34)cc2)cc1 (stereo not given) |
| 156 | Oc1ccc(OCCOc2ccccc2)cc1 |
| 143 to 144 | COc1ccc(Br)c(O)c1C(=O)O |
| 116 to 118 | O=C(Nc1cc(F)c(N2CC(=O)N(COC3CCCCO3)C2)c(F)c1)OCc1ccccc1 (stereo not given) |
| 83.5 | CCCCCCCc1ccc(-c2cnc([C@H]3CC[C@H](C#N)CC3)nc2)cc1 |
| 181 | CCCC(C1CCCCC1)n1c(C(=O)OC)cnc1S (stereo not given) |
| 147 to 149 | Cc1ccccc1-c1ccc(C(=O)N2Cc3ccc(C(=O)NCc4cccnc4)n3Cc3ccccc32)cc1C |
| 172 to 174 | COc1ccc(C2=NN(C3CCN(S(=O)(=O)N(C)C)CC3)C(=O)C(C)(C)C2)cc1OC |
| 259 to 263 | CC(C)N1C(Oc2ccccc2[N+](=O)[O-])=NS(=O)(=O)N=C1Oc1ccccc1[N+](=O)[O-] |
| 89 to 91 | O=C(c1ccccc1)N1CC2CC=Cc3cccc1c32 (stereo not given) |
| 80 to 81 | COC(=O)COc1cccc2c(CCO)c(CCOC(C)=O)oc12 |
| 123 to 124 | COC(=O)c1cc(C#Cc2ccc(C(=O)OC(C)(C)C)cc2)cnc1Cl |
| 108 to 110 | CC(C(=O)O)c1ccc(C=C2CCCCC2=O)cc1 (stereo not given) |
| 268 to 269 | Cc1nn(-c2ccccn2)c2[nH]c3ccc(S(C)=O)cc3c(=O)c12 (stereo not given) |

| melting point [°C] | Structure (SMILES) |
| --- | --- |
| 127 to 128 | CC(=O)Nc1cccc(C(=O)N[C@@H](C)C(=O)N2CCC[C@H]2C(=O)O)c1C(=O)O |
| 122 to 123 | O=C1N[C@H](Cc2ccc(C(F)(F)F)c(F)c2)[C@H](c2ccc(F)cc2)O1 (racemic) |
| 213 to 214 | CCc1ccc2c(c1)NC(=S)C2=O |
| 38.5 to 41 | CC(CSC(=S)N(C)C)[N+](=O)[O-] (stereo not given) |
| 178 to 180 | Cc1ccn(Cc2ccc(Cl)c(Cl)c2)c(=O)c1C#N |
| 206 to 208 | CS(=O)c1nc2cc(Oc3ccc(Cl)cc3Cl)c(Cl)cc2[nH]1 (stereo not given) |
| 69 to 72 | COc1cc(OC)c(CSC(C)(C)CCO)c(OC)c1 |
| > 270 | CC(=O)Nc1c(I)c(C(=O)NC(CO)CO)c(I)c(C(=O)NC(CO)CO)c1I |
| 192 to 194 | CCCCCC(=O)NCc1nc(-c2ccc3c(c2)Nc2ccccc2S3)cs1 |
| 117 to 118 | COc1ccc(C(=O)O)c(OCc2cccc(OCc3ccc4ccccc4n3)c2)c1 |
| 220 to 222 | CN1C(=O)C(NC(=O)Nc2cccc(I)c2)N=C(N2CC3CCC(CC3)C2)c2ccccc21 (single isomer, unassigned; (+)) |
| 135 to 137 | Cn1nccc1-c1ccc2c(ccn2-c2ccc(F)cc2)c1 |
| 125 | COC(=O)c1ccccc1S(=O)(=O)c1ccc(/C=C/c2ccc(F)cc2)cc1 |
| 255 to 258 | O=C1CNc2ncc(-c3cnc4[nH]ccc4c3)nc2N1CCC1CCOCC1 |
| 119 to 120 | CC(C)Oc1cccc(=O)n1O |
| 148 to 150 | C=C(c1cc(C(C)(C)C)cc2c1CCC2(C)C)c1sccc1C=O |
| 158 to 160 | Cc1cccc(-c2nc(N)sc2-c2ccnc(-c3ccc(C(=O)N4CCOCC4)cc3)c2)n1 |
| 221 to 222 | C[C@@H]1CN(CC(=O)Nc2ccccc2Cl)C[C@H](C)N1c1ncnc2c1ncn2C |
| 82 to 84 | CO/C=C(/C(=O)OC)c1csc(C(=O)c2ccccc2)c1 |
| 150 to 152 | CCOc1nc(N)nc2c1ncn2CCC(CO)CO |
| 245 to 248 | Nc1ccc2cnc(Nc3ccc(F)cc3)nc2n1 |
| 202 to 204 | S=C1CSc2cc(Cl)ccc2N1 |

| Structure (SMILES) | melting point [°C] |
| --- | --- |
| COC(=O)COc1cc2c(c3c1c(C(=O)C(N)=O)c(C)n3Cc1ccccc1Br)CCC2 | 200 to 207 |
| CCCCOCC(O)CN1C(=O)NC(=O)C(CC)(c2ccccc2)C1=O (stereo not given) | 92 |
| O=C1CSc2nc(Oc3ccc(N4CCNCC4)cc3)ncc2N1 | 309 to 312 |
